Measurements as given in patent US20090068103A1, “APTAMERS LABELED WITH 68GA” (priority 2006, published 2009).
Like-named read-outs stand apart in the source and are kept apart here.

Experiments:
human tenascin-C [1] = biological target: T1, human tenascin-C (Homo sapiens, UniProt P24821); assay: Competition filter binding assay against 99mTc-TTA1-MAG2; conditions: 2 nM human TN-C, 1 nM 99mTc-TTA1-MAG2, competed with unlabeled aptamer, 37° C., 15 min
Method: A competition filter binding assay was carried out in order to determine binding constants (EC50). Samples of 2 nM human TN-C were incubated with 1 nM ^99mTc-TTA1-MAG2 in TBSMC buffer (20 mM Tris, pH 7.4; 137 mM NaCl; 1 mM CaCl2; 1 mM MgCl2) and the binding competed with varying concentrations of unlabeled aptamer (see pipetting scheme in FIG. 9.1). Incubation was carried out at 37° C. for 15 min. Subsequently, the solutions were pipetted on a Minifold Device equipped with a supported nitrocellulose membrane and Whatman filter paper and were washed with buffer using vacuum. Residual radioactivity on the filter due to tenascin-C bound labeled aptamer was quantified using a Phosphorimager. EC50 values were calculated using GraphPadPrism 3.02 (San Diego, Calif., USA) plotting one-side competition non-linear regression curves.

human tenascin-C [2] = biological target: T1, human tenascin-C; conditions: cited from earlier work

T1 sequence (P24821 23-2201): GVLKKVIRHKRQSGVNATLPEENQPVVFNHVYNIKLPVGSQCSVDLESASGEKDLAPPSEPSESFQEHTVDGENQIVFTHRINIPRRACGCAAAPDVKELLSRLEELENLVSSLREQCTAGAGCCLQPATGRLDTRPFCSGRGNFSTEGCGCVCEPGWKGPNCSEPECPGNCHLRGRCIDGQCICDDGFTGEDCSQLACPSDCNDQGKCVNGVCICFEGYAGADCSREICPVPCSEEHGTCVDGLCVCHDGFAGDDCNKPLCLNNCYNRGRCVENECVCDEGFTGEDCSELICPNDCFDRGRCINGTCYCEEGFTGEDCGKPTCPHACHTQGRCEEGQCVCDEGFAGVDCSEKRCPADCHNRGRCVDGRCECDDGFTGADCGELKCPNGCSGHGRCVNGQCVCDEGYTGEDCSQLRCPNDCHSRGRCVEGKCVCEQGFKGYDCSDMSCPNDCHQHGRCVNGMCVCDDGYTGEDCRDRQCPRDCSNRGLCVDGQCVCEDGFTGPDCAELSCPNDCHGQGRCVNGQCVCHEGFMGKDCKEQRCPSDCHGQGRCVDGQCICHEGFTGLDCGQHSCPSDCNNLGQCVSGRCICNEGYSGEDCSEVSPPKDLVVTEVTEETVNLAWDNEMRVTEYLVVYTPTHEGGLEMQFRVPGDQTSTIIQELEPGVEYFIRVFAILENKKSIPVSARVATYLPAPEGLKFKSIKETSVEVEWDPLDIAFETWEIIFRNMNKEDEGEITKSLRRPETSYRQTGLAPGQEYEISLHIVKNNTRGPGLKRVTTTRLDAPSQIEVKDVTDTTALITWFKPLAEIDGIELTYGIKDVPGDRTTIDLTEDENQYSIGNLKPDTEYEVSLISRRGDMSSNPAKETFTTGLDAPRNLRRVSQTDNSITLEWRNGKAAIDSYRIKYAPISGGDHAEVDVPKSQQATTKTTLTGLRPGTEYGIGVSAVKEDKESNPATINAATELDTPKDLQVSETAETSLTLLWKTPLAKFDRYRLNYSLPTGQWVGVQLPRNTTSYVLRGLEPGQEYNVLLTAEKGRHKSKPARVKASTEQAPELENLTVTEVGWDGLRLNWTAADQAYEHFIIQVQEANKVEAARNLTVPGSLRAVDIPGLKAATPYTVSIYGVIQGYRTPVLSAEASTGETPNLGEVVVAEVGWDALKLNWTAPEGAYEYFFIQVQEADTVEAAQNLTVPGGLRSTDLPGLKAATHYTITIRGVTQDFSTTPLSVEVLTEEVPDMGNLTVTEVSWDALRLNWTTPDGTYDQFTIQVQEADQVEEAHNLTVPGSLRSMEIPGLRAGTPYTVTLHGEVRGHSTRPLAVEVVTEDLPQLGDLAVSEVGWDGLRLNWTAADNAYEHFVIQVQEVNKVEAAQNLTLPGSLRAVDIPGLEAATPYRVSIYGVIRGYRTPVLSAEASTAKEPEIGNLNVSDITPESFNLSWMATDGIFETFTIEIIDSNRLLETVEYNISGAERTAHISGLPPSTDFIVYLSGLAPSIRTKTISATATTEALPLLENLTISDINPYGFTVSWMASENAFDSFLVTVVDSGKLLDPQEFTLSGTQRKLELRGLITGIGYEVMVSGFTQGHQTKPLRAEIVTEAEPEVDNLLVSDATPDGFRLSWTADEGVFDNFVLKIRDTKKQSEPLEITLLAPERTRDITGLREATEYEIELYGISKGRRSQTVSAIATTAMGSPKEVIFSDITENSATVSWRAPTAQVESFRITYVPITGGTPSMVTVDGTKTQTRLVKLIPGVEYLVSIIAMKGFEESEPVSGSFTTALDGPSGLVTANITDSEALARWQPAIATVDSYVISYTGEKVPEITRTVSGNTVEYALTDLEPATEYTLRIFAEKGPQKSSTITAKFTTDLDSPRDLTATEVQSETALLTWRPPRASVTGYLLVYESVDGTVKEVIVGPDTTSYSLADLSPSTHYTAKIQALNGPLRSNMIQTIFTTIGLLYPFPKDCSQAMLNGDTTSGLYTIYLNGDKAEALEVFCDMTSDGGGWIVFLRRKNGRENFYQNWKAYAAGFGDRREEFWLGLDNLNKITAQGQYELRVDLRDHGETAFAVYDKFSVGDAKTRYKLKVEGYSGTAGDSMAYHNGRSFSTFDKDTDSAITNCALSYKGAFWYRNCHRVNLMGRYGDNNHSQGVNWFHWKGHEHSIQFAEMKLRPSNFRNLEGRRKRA

Row | Substance | EC50 (human tenascin-C [1]) [nM] | Kd (human tenascin-C [2]; final synthetic oligonucleotide, Hicke et al., read-out: KD) [nM] | Kd (human tenascin-C [2]; human tenascin-C, read-out: binding affinity KD) [nM]
1 | 5′-(aminomodifier C2 dT)-mA mGmGmG mAmGG mAfCmG-(CH2CH2O)6-fCGfU fCGfC fCGfU mAmAfU mGmGmA fUmGfU fUfUfU mGfCfU fCfCfC fUmG-3′-3′-T (chain 1 AGGGAGGACG; chain 2 CGUCGCCGUAAUGGAUGUUUUGCUCCCUG; 2'-OMe and 2'-F mix, some positions unassigned, 5' amino-C2 dT, hexaethylene glycol spacer, 3'-3' dT, further chemistry not given here) [TTA5] | 39 |  | 
2 | 5′-LGLGLG LALGmG mAfCrG-(CH2OCH2)6-fCGfU fCGfC fCGfU mAmAfU mGmGmA fUmGfU fUfUfU mGLCLU LCLCLC-(CH2)6NH2-3′ (CGUCGCCGUAAUGGAUGUUUUG; LNA/2'-OMe/2'-F, PEG spacer, 3' aminohexyl, chemistry not fully specified) [TTA7] | 2 |  | 
3 | 5′-NH2-C6-O-PO2-O-GGG AGG ACG-(CH2CH2O)6-CGUCGCCGUAAUGGAUGUUUUGCUCCCUG-3′-3′-T (CGUCGCCGUAAUGGAUGUUUUGCUCCCUG; 5' aminohexyl, hexaethylene glycol spacer, 3'-3' inverted dT, chemistry not fully specified) [TTA1] | 6 | 5 | 5
4 | 5′-NH2-C6-O-PO2-O-mGmGmG mAmGG mAfCmG-(CH2CH2O)6-fCGfU fCGfC fCGfU mAmAfU mGmGmA fUmGfU fUfUfU mGfCfU fCfCfC UG-3′-3′-T (CGUCGCCGUAAUGGAUGUUUUGCUCCCUG; 2'-OMe/2'-F, 5' aminohexyl, PEG spacer, 3' inverted dT, chemistry not fully specified) [TTA3] | 19 |  | 
5 | 5′-NH2-C6-O-PO2-O-mGmGmG mAmGG mAfCmG-(CH2CH2O)6-fCGfU fCGfC fCGfU mAmAfU mGmGmA fUmGfU fUfUfU mGfCfU fCfCfC UmG-3′-3′-T (CGUCGCCGUAAUGGAUGUUUUGCUCCCUG; 2'-OMe/2'-F, 5' aminohexyl, PEG spacer, 3' inverted dT, chemistry not fully specified) [TTA2] | 31 |  | 
6 | 5′-NH2-C6-O-SPO-O-mGmGmG mAmGG mAfCmG-(CH2CH2O)6-fCGfU fCGfC fCGfU mAmAfU mGmGmA fUmGfU fUfUfU mGfCfU fCfCfC fUmG-3′-3′-T (CGUCGCCGUAAUGGAUGUUUUGCUCCCUG; 5' aminohexyl phosphorothioate, 2'-OMe/2'-F, PEG spacer, inverted dT, chemistry not fully specified) [TTA6] | 14 |  | 
7 | 5′-mGmGmG mAmGG mAfCmG-(CH2CH2O)6-fCGfU fCGfC fCGfU mAmAfU mGmGmA fUmGfU fUfUfU mGfCfU fC(C6-NH2)CfC-3′-3′-T (CGUCGCCGUAAUGGAUGUUUUGCUC; 2'-OMe/2'-F, internal C6-amine, PEG spacer, 3' inverted dT, chemistry not fully specified) [TTA4] | 20 |  | 
8 | 5′-mGmGmG mAmGmG mAfCrG-(CH2OCH2)6-fCGfU fCGfC fCGfU mAmAfU mGmGmA fUmGfU fUfUfU mGmCmU mCmCmC-(CH2)6NH2-3′ (CGUCGCCGUAAUGGAUGUUUUGCUCCC; 2'-OMe/2'-F, PEG spacer, 3' aminohexyl, chemistry not fully specified) [TTA8] | 14 |  | 
